Earlier results in patent publication US20070112055A1, “Crystalline forms of almotriptan and processes for their preparation” (Glenmark Pharmaceuticals Limited, priority 2005, published 2007).

Key:
5-HT1B receptors = 5-HT1B receptors (Homo sapiens, UniProt P28222); details: general statement of the related art
5-HT1A receptors = molecular target: T1, 5-HT1A receptors (Homo sapiens, UniProt P08908); details: general statement of the related art
T1 sequence (P08908 1-422): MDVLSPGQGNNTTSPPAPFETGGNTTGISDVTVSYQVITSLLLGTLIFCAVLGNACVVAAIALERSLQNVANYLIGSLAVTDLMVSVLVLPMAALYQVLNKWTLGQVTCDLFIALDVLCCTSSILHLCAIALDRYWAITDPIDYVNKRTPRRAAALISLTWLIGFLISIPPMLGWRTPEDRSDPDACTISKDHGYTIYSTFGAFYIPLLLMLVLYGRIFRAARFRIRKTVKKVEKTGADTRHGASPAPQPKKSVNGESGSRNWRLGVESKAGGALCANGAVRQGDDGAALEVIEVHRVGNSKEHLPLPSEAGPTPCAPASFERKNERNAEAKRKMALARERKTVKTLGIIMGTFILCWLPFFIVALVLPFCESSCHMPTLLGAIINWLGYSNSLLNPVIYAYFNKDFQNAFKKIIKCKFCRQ

5-HT1F receptors = molecular target: T2, 5-HT1F receptors (Homo sapiens, UniProt P30939); details: general statement of the related art
T2 sequence (P30939 1-366): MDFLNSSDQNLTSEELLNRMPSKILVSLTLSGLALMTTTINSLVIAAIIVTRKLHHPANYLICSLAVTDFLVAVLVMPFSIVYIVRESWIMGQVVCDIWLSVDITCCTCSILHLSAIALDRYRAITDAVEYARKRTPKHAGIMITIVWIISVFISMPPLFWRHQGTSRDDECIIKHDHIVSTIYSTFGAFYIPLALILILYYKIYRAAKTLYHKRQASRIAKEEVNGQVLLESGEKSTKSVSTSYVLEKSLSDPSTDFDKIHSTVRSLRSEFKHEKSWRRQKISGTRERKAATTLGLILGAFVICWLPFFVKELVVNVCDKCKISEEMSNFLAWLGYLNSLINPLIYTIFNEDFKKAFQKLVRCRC

5-HT7 receptors = 5-HT7 receptors (Homo sapiens, UniProt P34969); details: general statement of the related art
Chain of 5-HT7 receptors (P34969 whole entry): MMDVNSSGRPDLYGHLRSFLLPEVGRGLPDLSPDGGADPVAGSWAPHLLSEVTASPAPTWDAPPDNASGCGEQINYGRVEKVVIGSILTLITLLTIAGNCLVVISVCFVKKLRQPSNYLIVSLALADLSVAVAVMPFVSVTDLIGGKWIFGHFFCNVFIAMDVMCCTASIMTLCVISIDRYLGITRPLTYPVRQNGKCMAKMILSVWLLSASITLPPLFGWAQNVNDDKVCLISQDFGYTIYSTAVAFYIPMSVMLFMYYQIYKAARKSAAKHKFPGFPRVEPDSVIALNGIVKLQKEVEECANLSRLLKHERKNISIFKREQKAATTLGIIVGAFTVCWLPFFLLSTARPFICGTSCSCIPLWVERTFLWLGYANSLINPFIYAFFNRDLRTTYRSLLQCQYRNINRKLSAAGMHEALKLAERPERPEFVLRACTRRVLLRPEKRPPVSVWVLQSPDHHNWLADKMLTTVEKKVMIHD

5-HT1D receptors = 5-HT1D receptors (Homo sapiens, UniProt P28221); details: general statement of the related art
Chain of 5-HT1D receptors (P28221 whole entry): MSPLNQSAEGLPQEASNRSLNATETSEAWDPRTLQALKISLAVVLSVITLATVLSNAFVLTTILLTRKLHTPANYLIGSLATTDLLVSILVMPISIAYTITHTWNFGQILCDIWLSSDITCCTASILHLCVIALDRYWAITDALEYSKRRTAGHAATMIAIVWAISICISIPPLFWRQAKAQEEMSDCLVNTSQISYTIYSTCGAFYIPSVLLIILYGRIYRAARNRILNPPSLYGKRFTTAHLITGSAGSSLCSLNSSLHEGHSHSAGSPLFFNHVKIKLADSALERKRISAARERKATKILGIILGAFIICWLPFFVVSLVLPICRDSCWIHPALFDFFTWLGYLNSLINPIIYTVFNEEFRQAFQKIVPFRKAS

[1] = amorphous form compared with the crystalline forms

Chain of 5-HT1B receptors (P28222 whole entry): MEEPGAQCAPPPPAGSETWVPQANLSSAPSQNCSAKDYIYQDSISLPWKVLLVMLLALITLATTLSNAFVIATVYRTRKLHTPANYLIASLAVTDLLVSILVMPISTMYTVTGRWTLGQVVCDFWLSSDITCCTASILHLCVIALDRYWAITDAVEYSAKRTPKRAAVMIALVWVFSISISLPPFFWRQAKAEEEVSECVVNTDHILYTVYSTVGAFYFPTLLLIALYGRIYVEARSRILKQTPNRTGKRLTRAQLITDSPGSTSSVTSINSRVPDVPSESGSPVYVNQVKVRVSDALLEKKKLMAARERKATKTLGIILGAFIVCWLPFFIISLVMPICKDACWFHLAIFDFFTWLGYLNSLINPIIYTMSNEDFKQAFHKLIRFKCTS

| Structure (SMILES) | affinity to 5-HT1B receptors (5-HT1B receptors) | affinity for 5-HT1A receptors (5-HT1A receptors) | affinity to 5-HT1F receptors (5-HT1F receptors) | affinity for 5-HT7 receptors (5-HT7 receptors) | affinity to 5-HT1D receptors (5-HT1D receptors) | bioavailability [1] |
| --- | --- | --- | --- | --- | --- | --- |
| CN(C)CCc1c[nH]c2ccc(CS(=O)(=O)N3CCCC3)cc12 [Almotriptan, 1-[[[3-[2-(dimethylamino)ethyl]indol-5-yl]methyl]sulfonyl]pyrrolidine] | high affinity | weak affinity | high affinity | weak affinity | high affinity |  |
| CO/N=C(\C(=O)N[C@@H]1C(=O)N2C(C(=O)OC(C)OC(C)=O)=C(COC(N)=O)CS[C@H]12)c1ccco1 (stereo partly drawn) [cefuroxime axietil] |  |  |  |  |  | much higher bioavailability than the crystalline forms |
